Source: ChEMBL document CHEMBL5215004, “Meroantarctines A-C, Meroterpenoids with Rearranged Skeletons from the Alga-Derived Fungus Penicillium antarcticum KMM 4685 with Potent p-Glycoprotein Inhibitory Activity” (J Nat Prod, 2022)
Active and inactive are the calls of the source. No cut-off for these calls is given here.

Tests used:
[1] = system: PNT2; assay: Cytotoxicity against human PNT2 cells assessed as reduction in cell viability at <= 100 uM incubated for 48 hrs by MTT assay; assay type: toxicity, cell-based; settings: pnt2, 48 h
[2] = system: PC-3; assay: Synergistic cytotoxicity against docetaxel-resistant human PC-3 cells assessed as reduction in cell viability at 12.5 to 100 uM incubated for 48 hrs in the presence of docetaxel by MTT assay; assay type: functional, cell-based; settings: dose 12.5-100 µM
[3] = target: ATP-dependent translocase ABCB1 (Homo sapiens, UniProt P08183); assay: Inhibition of p-glycoprotein in docetaxel-resistant human PC-3 cells assessed as inhibition of calcein excretion at 0.39 to 50 uM incubated for 30 mins by fluorescence based plate reader analysis; assay type: cell-based; settings: pc-3, 0.5 h, dose 0.39-50 µM
[4] = system: RWPE-1; assay: Cytotoxicity against human RWPE-1 cells assessed as reduction in cell viability at <= 100 uM incubated for 48 hrs by MTT assay; assay type: toxicity, cell-based; settings: rwpe-1, 48 h
[5] = system: PC-3; assay: Cytotoxicity against docetaxel-resistant human PC-3 cells assessed as reduction in cell viability at 0.5 to 64 uM pretreated with tariquidar for 1 hrs followed by compound addition and measured after 48 hrs by MTT assay; assay type: functional, cell-based; settings: dose 0.5-64 µM

Chain of ATP-dependent translocase ABCB1 (P08183 whole entry): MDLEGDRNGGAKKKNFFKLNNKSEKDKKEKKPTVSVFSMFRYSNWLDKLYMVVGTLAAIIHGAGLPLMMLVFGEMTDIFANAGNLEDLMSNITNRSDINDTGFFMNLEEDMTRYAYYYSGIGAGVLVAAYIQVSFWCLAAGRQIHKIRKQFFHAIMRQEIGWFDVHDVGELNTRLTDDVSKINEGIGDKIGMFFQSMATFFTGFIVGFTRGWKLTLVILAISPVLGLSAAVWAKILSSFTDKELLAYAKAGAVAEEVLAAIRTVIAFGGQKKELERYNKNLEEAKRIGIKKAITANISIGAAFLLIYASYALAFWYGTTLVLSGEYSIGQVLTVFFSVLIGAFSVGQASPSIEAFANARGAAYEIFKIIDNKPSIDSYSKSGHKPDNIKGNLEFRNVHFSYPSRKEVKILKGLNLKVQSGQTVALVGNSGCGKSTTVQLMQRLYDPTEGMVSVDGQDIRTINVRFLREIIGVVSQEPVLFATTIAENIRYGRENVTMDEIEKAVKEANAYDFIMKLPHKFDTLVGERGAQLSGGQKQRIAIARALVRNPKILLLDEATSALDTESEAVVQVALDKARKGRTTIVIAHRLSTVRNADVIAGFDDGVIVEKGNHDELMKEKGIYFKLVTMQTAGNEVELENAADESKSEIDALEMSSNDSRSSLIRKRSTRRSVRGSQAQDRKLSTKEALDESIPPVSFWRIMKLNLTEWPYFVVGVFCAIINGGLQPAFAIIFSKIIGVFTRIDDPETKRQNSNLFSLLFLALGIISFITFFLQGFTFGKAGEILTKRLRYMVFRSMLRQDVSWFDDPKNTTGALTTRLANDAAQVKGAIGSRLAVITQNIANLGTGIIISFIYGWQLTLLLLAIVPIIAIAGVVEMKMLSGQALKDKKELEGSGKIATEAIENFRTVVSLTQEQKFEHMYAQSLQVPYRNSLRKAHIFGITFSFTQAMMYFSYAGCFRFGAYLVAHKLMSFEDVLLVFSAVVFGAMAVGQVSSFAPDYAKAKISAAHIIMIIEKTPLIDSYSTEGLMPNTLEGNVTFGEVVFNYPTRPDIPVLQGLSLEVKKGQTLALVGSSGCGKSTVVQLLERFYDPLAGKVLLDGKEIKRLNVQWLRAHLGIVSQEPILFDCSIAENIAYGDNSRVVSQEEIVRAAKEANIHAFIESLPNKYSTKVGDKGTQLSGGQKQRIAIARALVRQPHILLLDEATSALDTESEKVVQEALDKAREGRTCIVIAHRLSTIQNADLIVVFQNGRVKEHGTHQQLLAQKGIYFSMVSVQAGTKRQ

SMILES | inhibition (INH) [3] | Activity [1] | Activity [2] | Activity [4] | Activity [5]
COC(=O)[C@H]1C(=O)O[C@]2(/C=C(\C)C(C)=O)[C@]34CC[C@H](OC(C)=O)C(C)(C)[C@H]3[C@H](C[C@]12C)OC4=O | Active | Non-Toxic | Active | Non-Toxic | 
CC(=O)O[C@@]12CO[C@@H]1C[C@H](O)[C@@]1(C)C(=O)[C@H](O)C3=C(C)[C@@H](OC(=O)[C@H](O)[C@@H](NC(=O)OC(C)(C)C)c4ccccc4)C[C@@](O)([C@@H](OC(=O)c4ccccc4)[C@H]21)C3(C)C |  |  |  |  | Active
C=C1C=C2[C@]34CC[C@H](OC(C)=O)C(C)(C)[C@H]3[C@H](C[C@]2(C)[C@]2(C(=O)OC)C(=O)[C@](C)(O)C(=O)[C@]12C)OC4=O | Active | Non-Toxic | Active | Non-Toxic | 

The next lines start with results.

inhibition (INH) [3] | SMILES | Activity [1] | Activity [2] | Activity [4] | Activity [5]
Active | COC(=O)[C@@]1(C(=O)C(C)=O)C(C)=C(C)C=C2[C@]34CC[C@H](OC(C)=O)C(C)(C)[C@H]3[C@H](C[C@@]21C)OC4=O | Non-Toxic | Active | Non-Toxic | 
Active | COC(=O)[C@@]12C(=O)C(=O)O[C@@]3(C=C1C)[C@]2(C)C[C@@H]1OC(=O)[C@]32CC[C@H](OC(C)=O)C(C)(C)[C@@H]12 | Non-Toxic | Active | Non-Toxic | 
